Results as given in ChEMBL document CHEMBL5380808, “Design, Synthesis, and Biological Activity of Marinacarboline Analogues as STAT3 Pathway Inhibitors for Docetaxel-Resistant Triple-Negative Breast Cancer” (J Med Chem, 2023).
Calls of active or inactive are those of the source. No cut-off for these calls is given here.

Assays:
[1] = Cytotoxicity against human MRC5 cells assessed as reduction in cell viability incubated for 72 hrs by sulforhodamine B assay; assay type: toxicity, cell-based
MDA-MB-231 = test: Antiproliferative activity against human MDA-MB-231 cells assessed as reduction in cell viability incubated for 72 hrs by sulforhodamine B assay; assay type: functional, cell-based; details: MDA-MB-231, 72 h
[2] = Antiproliferative activity against docetaxel-resistant human MDA-MB-231-DTR cells assessed as reduction in cell viability incubated for 72 hrs by sulforhodamine B assay; assay type: functional, cell-based; details: MDA-MB-231, 72 h
[3] = Selectivity index, ratio of IC50 for cytotoxicity against human MRC5 cells to IC50 for antiproliferative activity against human MDA-MB-231 cells; assay type: toxicity, cell-based; details: MRC5 cells and MDA-MB-231 cells, read-out: Ratio IC50
[4] = target: Signal transducer and activator of transcription 3 (Homo sapiens) (UniProt P40763); test: Inhibition of STAT3 phosphorylation at Y705 residue in human MDA-MB-231 cells assessed as decrease in phosphorylated STAT3 level at 5 uM incubated for 24 hrs by Western blot analysis; assay type: cell-based
Chain of Signal transducer and activator of transcription 3 (Homo sapiens) (P40763 whole entry): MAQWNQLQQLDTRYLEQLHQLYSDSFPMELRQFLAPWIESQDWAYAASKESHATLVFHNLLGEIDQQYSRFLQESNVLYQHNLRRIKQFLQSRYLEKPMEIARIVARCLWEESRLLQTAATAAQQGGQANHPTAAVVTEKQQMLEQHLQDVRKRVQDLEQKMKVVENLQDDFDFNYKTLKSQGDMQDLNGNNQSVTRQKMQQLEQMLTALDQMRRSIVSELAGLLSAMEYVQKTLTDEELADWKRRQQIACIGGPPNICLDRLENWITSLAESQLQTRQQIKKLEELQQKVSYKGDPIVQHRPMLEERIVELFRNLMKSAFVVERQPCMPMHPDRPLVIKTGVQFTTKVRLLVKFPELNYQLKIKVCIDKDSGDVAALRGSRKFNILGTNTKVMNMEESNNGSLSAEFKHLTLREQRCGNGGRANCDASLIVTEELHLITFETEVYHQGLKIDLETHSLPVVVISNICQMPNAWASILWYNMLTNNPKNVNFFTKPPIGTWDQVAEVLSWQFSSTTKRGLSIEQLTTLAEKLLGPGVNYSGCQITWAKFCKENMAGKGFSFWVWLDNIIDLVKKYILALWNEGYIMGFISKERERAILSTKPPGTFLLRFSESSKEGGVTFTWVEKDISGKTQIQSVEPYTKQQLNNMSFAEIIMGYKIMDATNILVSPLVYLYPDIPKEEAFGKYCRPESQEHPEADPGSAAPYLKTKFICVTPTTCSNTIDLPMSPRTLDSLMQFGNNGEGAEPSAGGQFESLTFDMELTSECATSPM

Structure (SMILES): O=C(NCc1ccc(O)cc1)c1cc2c([nH]c3ccccc32)c(C(=O)c2ccc(Br)cc2)n1
- IC50 at 72 h [1]: > 50 µM
- IC50 (MDA-MB-231): > 50 µM

Structure (SMILES): CC(=O)c1nc(C(=O)N(C)C)cc2c1[nH]c1ccccc12
- IC50 at 72 h [1]: > 50 µM
- IC50 (MDA-MB-231): > 50 µM

Structure (SMILES): CC(=O)c1nc(C(=O)NCCc2c[nH]c3ccccc23)cc2c1[nH]c1ccccc12 [MARINACARBOLINE D]
- IC50 at 72 h [1]: 27.2 µM
- IC50 [2]: 8.21 µM
- IC50 (MDA-MB-231): 7.71 µM
- selectivity ratio [3]: 3.53

Structure (SMILES): CCCCNC(=O)c1cc2c([nH]c3ccccc32)c(C(C)=O)n1
- IC50 at 72 h [1]: > 50 µM
- IC50 (MDA-MB-231): > 50 µM

Structure (SMILES): CC(=O)c1nc(C(=O)OCCc2c[nH]c3ccccc23)cc2c1[nH]c1ccccc12
- IC50 at 72 h [1]: 38.3 µM
- IC50 [2]: 8.48 µM
- IC50 (MDA-MB-231): 9.52 µM
- selectivity ratio [3]: 4.02

Structure (SMILES): COC(=O)c1cc2c([nH]c3ccccc32)c(C(C)=O)n1
- IC50 at 72 h [1]: > 50 µM
- IC50 (MDA-MB-231): > 50 µM

Structure (SMILES): O=C(NCCc1c[nH]c2ccccc12)c1cc2c([nH]c3ccccc32)c(C(=O)c2ccc(Cl)cc2)n1
- IC50 at 72 h [1]: > 50 µM
- IC50 (MDA-MB-231): 14.7 µM
- selectivity ratio [3]: > 3.4

Structure (SMILES): CC(=O)c1nc(C(=O)NCc2ccccc2O)cc2c1[nH]c1ccccc12
- IC50 at 72 h [1]: 38.3 µM
- IC50 (MDA-MB-231): 10.3 µM
- selectivity ratio [3]: 3.7

Structure (SMILES): CC(=O)c1nc(C(=O)NC(C)C)cc2c1[nH]c1ccccc12
- IC50 at 72 h [1]: > 50 µM
- IC50 (MDA-MB-231): 37.3 µM
- selectivity ratio [3]: > 1.34

Structure (SMILES): CC(=O)c1nc(C(=O)NCc2ccc(N)cc2)cc2c1[nH]c1ccccc12
- IC50 at 72 h [1]: > 50 µM
- IC50 [2]: 15.5 µM
- IC50 (MDA-MB-231): 16.3 µM
- selectivity ratio [3]: > 3.07

Structure (SMILES): CC(=O)c1nc(C(=O)NCCc2c[nH]c3ccc(Cl)cc23)cc2c1[nH]c1ccccc12
- IC50 at 72 h [1]: 36.5 µM
- IC50 (MDA-MB-231): 5.94 µM
- selectivity ratio [3]: 6.14

Structure (SMILES): CC(=O)c1nc(C(=O)Nc2ccc(C(F)(F)F)cc2)cc2c1[nH]c1ccccc12
- IC50 at 72 h [1]: > 50 µM
- IC50 (MDA-MB-231): > 50 µM

Structure (SMILES): COc1ccc2[nH]cc(CCNC(=O)c3cc4c([nH]c5ccccc54)c(C(C)=O)n3)c2c1
- IC50 at 72 h [1]: 39.3 µM
- IC50 (MDA-MB-231): 10.8 µM
- selectivity ratio [3]: 3.62

Structure (SMILES): O=C(NCc1ccc(O)cc1)c1cc2c([nH]c3ccccc32)c(C(=O)c2ccc(O)cc2)n1
- IC50 at 72 h [1]: > 50 µM
- IC50 (MDA-MB-231): > 50 µM

Structure (SMILES): CC(=O)c1nc(C(=O)O)cc2c1[nH]c1ccccc12
- IC50 at 72 h [1]: > 50 µM
- IC50 (MDA-MB-231): > 50 µM

Structure (SMILES): CC(=O)c1nc(C(=O)NCCCO)cc2c1[nH]c1ccccc12
- IC50 at 72 h [1]: 41.2 µM
- IC50 (MDA-MB-231): 16.5 µM
- selectivity ratio [3]: 2.5

Structure (SMILES): O=C(NCCc1c[nH]c2ccccc12)c1cc2c([nH]c3ccccc32)c(C(=O)c2ccc(O)cc2)n1
- IC50 at 72 h [1]: 39.3 µM
- IC50 [2]: 6.62 µM
- IC50 (MDA-MB-231): 6.82 µM
- inhibition [4]: Active
- selectivity ratio [3]: 5.76

Structure (SMILES): O=C(NCCc1c[nH]c2ccccc12)c1cc2c([nH]c3ccccc32)c(C(=O)c2cccc(Br)c2)n1
- IC50 at 72 h [1]: > 50 µM
- IC50 (MDA-MB-231): > 50 µM

Structure (SMILES): CC(=O)c1nc(C(=O)NCc2ccc(F)cc2)cc2c1[nH]c1ccccc12
- IC50 at 72 h [1]: > 50 µM
- IC50 (MDA-MB-231): 24.7 µM
- selectivity ratio [3]: > 2.02

Structure (SMILES): CC(=O)c1nc(C(=O)NCCCc2c[nH]c3ccccc23)cc2c1[nH]c1ccccc12
- IC50 at 72 h [1]: > 50 µM
- IC50 (MDA-MB-231): > 50 µM

Structure (SMILES): CC(=O)c1nc(C(=O)Nc2ccc3[nH]ccc3c2)cc2c1[nH]c1ccccc12
- IC50 at 72 h [1]: 48.2 µM
- IC50 (MDA-MB-231): 6.98 µM
- selectivity ratio [3]: 6.91

Structure (SMILES): COc1ccc(CCNC(=O)c2cc3c([nH]c4ccccc43)c(C(C)=O)n2)cc1 [MARINACARBOLINE A]
- IC50 at 72 h [1]: > 50 µM
- IC50 (MDA-MB-231): > 50 µM

Structure (SMILES): Cc1ccc(-c2nc(C(=O)NCCc3c[nH]c4ccccc34)cc3c2[nH]c2ccccc23)cc1
- IC50 at 72 h [1]: 42 µM
- IC50 (MDA-MB-231): 6.89 µM
- selectivity ratio [3]: 6.1

Structure (SMILES): CC(=O)c1nc(C(=O)NCCCN(C)C)cc2c1[nH]c1ccccc12
- IC50 at 72 h [1]: > 50 µM
- IC50 (MDA-MB-231): 11.3 µM
- selectivity ratio [3]: > 4.41

Structure (SMILES): CC(=O)c1nc(C(=O)NCc2cccc(O)c2)cc2c1[nH]c1ccccc12
- IC50 at 72 h [1]: > 50 µM
- IC50 (MDA-MB-231): 27.7 µM
- selectivity ratio [3]: > 1.81

Structure (SMILES): CC(=O)c1nc(C(=O)NCc2ccccc2)cc2c1[nH]c1ccccc12
- IC50 at 72 h [1]: > 50 µM
- IC50 (MDA-MB-231): > 50 µM

Structure (SMILES): CCCC(=O)c1nc(C(=O)NCCc2c[nH]c3ccccc23)cc2c1[nH]c1ccccc12
- IC50 at 72 h [1]: > 50 µM
- IC50 (MDA-MB-231): > 50 µM

Structure (SMILES): O=C(NCCc1c[nH]c2ccccc12)c1cc2c([nH]c3ccccc32)c(C(=O)c2ccccc2Br)n1
- IC50 at 72 h [1]: > 50 µM
- IC50 (MDA-MB-231): > 50 µM

Structure (SMILES): COc1ccc(NC(=O)c2cc3c([nH]c4ccccc43)c(C(C)=O)n2)cc1
- IC50 at 72 h [1]: > 50 µM
- IC50 (MDA-MB-231): > 50 µM

Structure (SMILES): O=C(NCCc1c[nH]c2ccccc12)c1cc2c([nH]c3ccccc32)c(C(=O)c2ccccc2)n1
- IC50 at 72 h [1]: 31.9 µM
- IC50 (MDA-MB-231): 21.2 µM
- selectivity ratio [3]: 1.5

Structure (SMILES): CC(=O)c1nc(C(=O)NCc2ccc(Cl)cc2)cc2c1[nH]c1ccccc12
- IC50 at 72 h [1]: > 50 µM
- IC50 (MDA-MB-231): 48.3 µM
- selectivity ratio [3]: > 1.04

Structure (SMILES): CC(=O)c1nc(C(=O)NCc2c[nH]c3ccccc23)cc2c1[nH]c1ccccc12
- IC50 at 72 h [1]: > 50 µM
- IC50 (MDA-MB-231): 14.3 µM
- selectivity ratio [3]: > 3.51

Structure (SMILES): COc1ccc(CNC(=O)c2cc3c([nH]c4ccccc43)c(C(C)=O)n2)cc1
- IC50 at 72 h [1]: > 50 µM
- IC50 (MDA-MB-231): 16.8 µM
- selectivity ratio [3]: > 2.97

Structure (SMILES): CC(=O)c1nc(C(=O)NCc2ccc(O)cc2)cc2c1[nH]c1ccccc12
- IC50 at 72 h [1]: > 50 µM
- IC50 [2]: 3.66 µM
- IC50 (MDA-MB-231): 3.51 µM
- selectivity ratio [3]: > 14.2

Structure (SMILES): CC(=O)c1nc(C(=O)NCCc2ccc(O)cc2)cc2c1[nH]c1ccccc12
- IC50 at 72 h [1]: > 50 µM
- IC50 (MDA-MB-231): > 50 µM

Structure (SMILES): CC(=O)c1nc(C(=O)NCCc2c(C)[nH]c3ccccc23)cc2c1[nH]c1ccccc12
- IC50 at 72 h [1]: 41.9 µM
- IC50 (MDA-MB-231): 11.3 µM
- selectivity ratio [3]: 3.71

Structure (SMILES): CCCN(CCC)C(=O)c1cc2c([nH]c3ccccc32)c(C(C)=O)n1
- IC50 at 72 h [1]: > 50 µM
- IC50 (MDA-MB-231): > 50 µM

Structure (SMILES): CNC(=O)c1cc2c([nH]c3ccccc32)c(C(C)=O)n1
- IC50 at 72 h [1]: > 50 µM
- IC50 (MDA-MB-231): > 50 µM

Structure (SMILES): CC(=O)c1nc(C(=O)N(Cc2ccccc2)Cc2ccccc2)cc2c1[nH]c1ccccc12
- IC50 at 72 h [1]: > 50 µM
- IC50 (MDA-MB-231): 20.8 µM
- selectivity ratio [3]: > 2.4

Structure (SMILES): Cc1ccc(C(=O)c2nc(C(=O)NCCc3c[nH]c4ccccc34)cc3c2[nH]c2ccccc23)cc1
- IC50 at 72 h [1]: 41.2 µM
- IC50 (MDA-MB-231): 8.29 µM
- selectivity ratio [3]: 4.98

Structure (SMILES): CC(=O)c1nc(C(=O)NCc2ccc(C#N)cc2)cc2c1[nH]c1ccccc12
- IC50 at 72 h [1]: > 50 µM
- IC50 (MDA-MB-231): > 50 µM

Structure (SMILES): COc1cc([C@@H]2c3cc4c(cc3[C@@H](O[C@@H]3O[C@@H]5CO[C@@H](C)O[C@H]5[C@H](O)[C@H]3O)[C@H]3COC(=O)[C@H]23)OCO4)cc(OC)c1O [ETOPOSIDE]
- IC50 at 72 h [1]: 13.5 µM
- IC50 (MDA-MB-231): 3.66 µM
- selectivity ratio [3]: 3.68

Structure (SMILES): CC(=O)c1nc(C(=O)Nc2ccccc2)cc2c1[nH]c1ccccc12
- IC50 at 72 h [1]: > 50 µM
- IC50 (MDA-MB-231): > 50 µM

Structure (SMILES): CC(=O)c1nc(C(=O)Nc2ccc(N)cc2)cc2c1[nH]c1ccccc12
- IC50 at 72 h [1]: > 50 µM
- IC50 (MDA-MB-231): 10.8 µM
- selectivity ratio [3]: > 4.63

Structure (SMILES): CC(=O)c1nc(C(=O)NCCc2ccccc2)cc2c1[nH]c1ccccc12
- IC50 at 72 h [1]: > 50 µM
- IC50 (MDA-MB-231): > 50 µM

Structure (SMILES): O=C(NCCc1c[nH]c2ccccc12)c1cc2c([nH]c3ccccc32)c(-c2ccc(O)cc2)n1
- IC50 at 72 h [1]: 46.3 µM
- IC50 (MDA-MB-231): 5.68 µM
- selectivity ratio [3]: 8.15

Structure (SMILES): O=C(NCCc1c[nH]c2ccccc12)c1cc2c([nH]c3ccccc32)c(-c2ccccc2)n1
- IC50 at 72 h [1]: > 50 µM
- IC50 (MDA-MB-231): 19.2 µM
- selectivity ratio [3]: > 2.6

Structure (SMILES): O=C(NCCc1c[nH]c2ccccc12)c1cc2c([nH]c3ccccc32)c(-c2ccc(Br)cc2)n1
- IC50 at 72 h [1]: 48.8 µM
- IC50 [2]: 6.81 µM
- IC50 (MDA-MB-231): 7.06 µM
- inhibition [4]: Active
- selectivity ratio [3]: 6.19

Structure (SMILES): CC(=O)c1nc(C(=O)NCc2ccc(C(C)(C)C)cc2)cc2c1[nH]c1ccccc12
- IC50 at 72 h [1]: > 50 µM
- IC50 (MDA-MB-231): 34.2 µM
- selectivity ratio [3]: > 1.46

Structure (SMILES): CC(=O)c1nc(C(=O)NCc2ccc3[nH]ccc3c2)cc2c1[nH]c1ccccc12
- IC50 at 72 h [1]: > 50 µM
- IC50 (MDA-MB-231): 14.9 µM
- selectivity ratio [3]: > 3.36
